According to publication PMC9448375 (Drug Delivery, 2022):

Columns and labels:
[1] = test system: streptozotocin-induced diabetic Sprague–Dawley rats; test: Pharmacodynamic study in diabetic rats (blood glucose level); format: in vivo, rat; conditions: for AAC0–8h (area above the blood glucose level curve, % of initial, 0–8 h) / BGLmin (minimum blood glucose level, % of initial levels) / Tmin (time to reach BGLmin): mean ± SD, n = 5–7
Experimental: To establish animal models of type 1 diabetes mellitus, male Sprague–Dawley rats were injected intraperitoneally with freshly prepared single doses of streptozotocin (60 mg/kg) dissolved in citrate buffer (0.1 M, pH 4.5). The successful induction of diabetes was corroborated by an increase in blood glucose levels after five days. Only the rats with fasting blood glucose levels higher than 250 mg/dL were considered diabetic.
All rats were fasted for 12 h before the experiment, with free access to water. […] Subsequently, blood samples were collected from the tail vein at different time intervals (0, 0.5, 1, 1.5, 2, 3, 4, 5, 6, and 8 h) and tested using a glucometer (GreenDoctor, GREENCROSS MEDIS Co., Chungnam, Korea). Based on the blood glucose level at 0 h (initial), each blood glucose level was converted to the relative level (% of initial). A value of 100% of the relative level was chosen as a reference point (upper limit) for the determination of the area above the blood glucose (% of initial)–time curve (AAC) values for decreased blood glucose levels.

[2] = log P by shake-flask method; format: physicochemical; conditions: shake-flask n-octanol/distilled water, mutually pre-saturated; 25 °C, 24 h, 50 rpm; HPLC of INS in both phases; HIP complexes at INS:counterion 1:6; mean, n = 3
Experimental: The log P values of different HIP complexes were determined by the shake-flask method (Zhang et al., [2021]). Prior to the experiment, distilled water and n-octanol were poured into a separatory funnel, vigorously shaken, and then allowed to settle for 24 h to mutually saturate. Stock solutions of HIP complexes in the saturated n-octanol were prepared and mixed with pre-saturated distilled water at a 1:10 (vol/vol) ratio. INS was dissolved in saturated distilled water and then mixed with pre-saturated n-octanol. The tube was incubated at 25 °C for 24 h with continuous shaking (50 rpm) and allowed to separate for 1 h, after which it was centrifuged at 16,000g for 10 min. Afterward, samples from both phases were carefully analyzed by HPLC.

pepsin = biological target: T1, pepsin (Sus scrofa, UniProt P00791); test: Stability against GI enzymes in simulated gastric fluid (SGF); format: in vitro ADME; conditions: SGF: pepsin 2,000 U/mL in pH 1.2 solution, mixed 1:1 with sample (INS 0.2 mg/mL), 37 °C, 100 rpm, HPLC, n = 3
T1 construct: purchased Sigma–Aldrich Chemical Co. (St. Louis, MO, USA)
Experimental: Simulated gastric fluid (SGF) was prepared by adding pepsin to pH 1.2 solution to a concentration of 2,000 U/mL. Simulated intestinal fluid (SIF) was prepared by adding trypsin (5,000 BAEE U/mL), chymotrypsin (20 IU/mL), lipase (400 IU/mL), and bile salt (10 mM) to the Tris buffer (50 mM, pH 8.0). […] Then, 250 µL of either SGF or SIF was added to the 250 µL of each formulation for enzymatic degradation. The mixture was transferred to a shaking incubator (SI-900R; JeioTech, Daejeon, Korea) and incubated at 37 °C under shaking (100 rpm). Finally, […] of cooled 0.1% TFA in methanol was added at predetermined time points (0, 5, 15, 30, 60, and 120 min) to quench the enzymatic reaction. For intestinal enzyme study, the reaction was continued for 240 min. Finally, the amount of INS remaining in the obtained samples was quantified by HPLC, as described earlier.

[3] = test system: trypsin, chymotrypsin, lipase, bile salt; test: Stability against GI enzymes in simulated intestinal fluid (SIF); format: in vitro ADME; conditions: SIF: trypsin 5,000 BAEE U/mL, chymotrypsin 20 IU/mL, lipase 400 IU/mL, bile salt 10 mM, Tris 50 mM pH 8.0; mixed 1:1 with sample (INS 0.2 mg/mL); 37 °C, 100 rpm; 0–240 min; HPLC; first-order fit; n = 3
Experimental: Simulated intestinal fluid (SIF) was prepared by adding trypsin (5,000 BAEE U/mL), chymotrypsin (20 IU/mL), lipase (400 IU/mL), and bile salt (10 mM) to the Tris buffer (50 mM, pH 8.0). […] Then, 250 µL of either SGF or SIF was added to the 250 µL of each formulation for enzymatic degradation. The mixture was transferred to a shaking incubator (SI-900R; JeioTech, Daejeon, Korea) and incubated at 37 °C under shaking (100 rpm). Finally, 500 mL of cooled 0.1% TFA in methanol was added at predetermined time points (0, 5, 15, 30, 60, and 120 min) to quench the enzymatic reaction. For intestinal enzyme study, the reaction was continued for 240 min.

T1 sequence (P00791 60-385): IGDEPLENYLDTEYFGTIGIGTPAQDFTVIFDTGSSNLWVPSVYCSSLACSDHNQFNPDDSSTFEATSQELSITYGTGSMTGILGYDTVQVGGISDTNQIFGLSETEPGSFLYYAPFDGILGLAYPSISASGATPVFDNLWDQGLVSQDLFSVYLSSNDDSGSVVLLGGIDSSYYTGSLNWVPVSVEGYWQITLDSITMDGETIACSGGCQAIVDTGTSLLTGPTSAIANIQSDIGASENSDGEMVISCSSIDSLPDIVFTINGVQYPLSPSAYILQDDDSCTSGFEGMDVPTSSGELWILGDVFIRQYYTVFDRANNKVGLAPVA

With Insulin the “AAC0–8h (area above the blood glucose level curve, % of initial, 0–8 h)” value ([1]; SC injection, 5 IU/kg) was 439.29 ± 30.00 %·h, the “BGLmin (minimum blood glucose level, % of initial levels)” value ([1]; SC injection, 5 IU/kg) was 22.78 ± 1.92% and the “Tmin (time to reach BGLmin)” value ([1]; SC injection, 5 IU/kg) was 3.20 ± 0.84 h. For the same substance, the “AAC0–8h (area above the blood glucose level curve, % of initial, 0–8 h)” value ([1]; oral gavage, 50 IU/kg) was “–44.47 ± 38.33 %·h”, the “BGLmin (minimum blood glucose level, % of initial levels)” value ([1]; oral gavage, 50 IU/kg) was 97.92 ± 1.23% and the “Tmin (time to reach BGLmin)” value ([1]; oral gavage, 50 IU/kg) was 2.75 ± 0.25 h. For the same substance, the “antidiabetic effects (blood glucose level versus time)” value ([1]; oral, 50 IU/kg) was “negligible”, the “log P” value [2] was “–1.61” and the “Rate constant of INS degradation, simulated gastric fluid” value (pepsin; 0–120 min, first-order fit) was 0.1854 min⁻¹. For the same substance, the “Half-life of INS, simulated gastric fluid” value (pepsin) was 3.74 min and the “Rate constant of INS degradation, simulated intestinal fluid” value [3] was 0.1980 min⁻¹.
